# Experimental data taken from article PMC4793208 (RNA, 2016).
# Tests used:
# S. pombe Dcp1/2 = biological target: T1, S. pombe Dcp1/2 (Schizosaccharomyces pombe, UniProt O13828); format: biochemical
# T1 sequence (O13828 1-243 limits assumed): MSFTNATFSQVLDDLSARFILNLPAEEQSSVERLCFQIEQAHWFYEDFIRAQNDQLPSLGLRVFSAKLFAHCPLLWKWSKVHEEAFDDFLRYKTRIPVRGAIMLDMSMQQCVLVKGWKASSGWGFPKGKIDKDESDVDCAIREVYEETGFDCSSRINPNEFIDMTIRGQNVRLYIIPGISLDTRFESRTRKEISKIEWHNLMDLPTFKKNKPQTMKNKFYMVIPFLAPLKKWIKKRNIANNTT
# T1 sequence (Q9P805 1-127 partner): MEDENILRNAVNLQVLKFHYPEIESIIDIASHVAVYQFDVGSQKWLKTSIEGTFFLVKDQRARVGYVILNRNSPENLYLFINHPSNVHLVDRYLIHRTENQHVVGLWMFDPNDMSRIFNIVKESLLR
# SpDcp1/2 = biological target: T2, SpDcp1/2 (Schizosaccharomyces pombe, UniProt O13828); assay: Single-turnover kinetic inhibition assay, SpDcp1/2, 29-nt native-capped RNA; format: biochemical; settings: read-out: KI (affinity for the free enzyme), Dcp1/2 complex, subsaturating enzyme
# T2 sequence (O13828 1-243): T1 sequence (O13828 1-243 limits assumed)
# T2 sequence (Q9P805 1-127 partner): T1 sequence (Q9P805 1-127 partner)
SMILES,inhibitory properties towards Dcp1/2 decapping (in words) (S. pombe Dcp1/2),Ki (SpDcp1/2)
"CO[C@H]1[C@@H](O)[C@H]([n+]2cn(C)c3c(=O)[nH]c(N)nc32)O[C@@H]1COP(=O)([O-])OP(=O)(O)OP(=O)(O)OC[C@H]1O[C@@H](n2cnc3c(=O)[nH]c(N)nc32)[C@H](O)[C@@H]1O [Compound 16, m2^7,3′-OGpppG]",poor Dcp1/2 inhibitors,–
"Nc1ncnc2c1ncn2[C@@H]1O[C@H](COP(=O)(O)OP(=O)(O)OP(=O)(O)O)[C@@H](O)[C@H]1O [Compound 18, ATP]",poor Dcp1/2 inhibitors,–
"C[n+]1cn([C@@H]2O[C@H](COP(=O)(O)OP(=O)([O-])OP(=O)(O)OP(=O)(O)OC[C@H]3O[C@@H](n4cnc5c(=O)[nH]c(N)nc54)[C@H](O)[C@@H]3O)[C@@H](O)[C@H]2O)c2nc(N)nc(O)c21 [Compound 17, m^7GppppG]",minimal,–
Cn1c[n+]([C@@H]2O[C@H](COP(=O)(O)OP(=O)([O-])OP(=O)(O)OC[C@H]3O[C@@H](n4cnc5c(=O)[nH]c(N)nc54)[C@H](O)[C@@H]3O)[C@@H](O)[C@H]2O)c2nc(N)[nH]c(=O)c21 [m^7GpppG],–,1400 ± 300 µM
"Nc1nc2c(ncn2[C@@H]2O[C@H](COP(=O)(O)OP(=O)(O)OP(=O)(O)O)[C@@H](O)[C@H]2O)c(=O)[nH]1 [Compound 19, GTP]",poor Dcp1/2 inhibitors,–
